Data reported in PubChem BioAssay (NCI).
Where “and” joins values, the source holds several entries; their conditions need not be identical. Equal values may be shown once.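 Tested at 5 concentrations; 48 h exposure; 96-well plates; endpoints linearly interpolated, else capped at highest concentration. Abbreviation: GI50, concentration required for 50% inhibition of growth. TGI is the concentration that stops growth completely.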

Key:
Test in all cases: NCI-60 cell line screen, 48 h
A549 NSCLC = system: A549 NSCLC
PC-3 prostate = system: PC-3 prostate
HOP-62 NSCLC = system: HOP-62 NSCLC
SNB-19 CNS = system: SNB-19 CNS
M14 melanoma = system: M14 melanoma
U251 CNS = system: U251 CNS
RXF 393 renal = system: RXF 393 renal
NCI-H23 lung = system: NCI-H23 lung
KM12 colon = system: KM12 colon
A498 renal = system: A498 renal

SMILES	GI50 (A549 NSCLC)	TGI (A549 NSCLC)	GI50 (PC-3 prostate)	TGI (PC-3 prostate)	GI50 (HOP-62 NSCLC)	TGI (HOP-62 NSCLC)	GI50 (SNB-19 CNS)	TGI (SNB-19 CNS)	GI50 (M14 melanoma)	TGI (M14 melanoma)	GI50 (U251 CNS)	TGI (U251 CNS)	GI50 (RXF 393 renal)	TGI (RXF 393 renal)	GI50 (NCI-H23 lung)	TGI (NCI-H23 lung)	GI50 (KM12 colon)	TGI (KM12 colon)	GI50 (A498 renal)	TGI (A498 renal)
CCC(C)(C)C(=O)O[C@H]1C[C@@H](C)C=C2C=C[C@H](C)[C@H](CC[C@@H]3C[C@@H](O)CC(=O)O3)[C@H]21	6.79 µM	20.4 µM and 18.8 µM	0.367 µM	14.5 µM	7.37 µM	20.3 µM and > 30 µM	3.13 µM	19.9 µM	2.89 µM	16.7 µM and 8.09 µM	0.371 µM	5.44 µM and > 30 µM	2.06 µM	8.5 µM and 2.48 µM	1.79 µM	15.3 µM and 3.55 µM	11.2 µM	24.1 µM and > 30 µM	0.156 µM	–
CC(=O)N1c2ccccc2C23CCN(C)CC4C(C)OCC(C4CC2=O)C13 (centres undefined)	–	> 100 µM	–	> 100 µM	–	–	–	> 100 µM	–	> 100 µM	–	> 100 µM	–	> 100 µM	–	> 100 µM	–	> 100 µM	–	> 100 µM
O=[N+]([O-])c1ccc(Br)c([N+](=O)[O-])c1	4.12 µM	16.4 µM	1.94 µM	3.93 µM	1.78 µM	3.24 µM	2.9 µM	9.28 µM	1.74 µM	3.27 µM	1.72 µM	3.29 µM	1.83 µM	3.36 µM	1.82 µM	3.66 µM	1.8 µM	3.23 µM	14.3 µM	27.7 µM
O=c1cccccc1NCCOCCNc1cccccc1=O	–	> 100 µM	–	–	–	> 100 µM	–	> 100 µM	–	> 100 µM	–	> 100 µM	–	–	–	> 100 µM	–	> 100 µM	–	> 100 µM
COc1ccc(C(=O)C(c2ccc(OC)cc2)C2(O)C(=O)Nc3ccccc32)cc1 (centres undefined)	–	> 100 µM	–	–	–	–	–	> 100 µM	–	> 100 µM	–	> 100 µM	–	–	–	> 100 µM	–	> 100 µM	–	–
O=c1/c(=C/c2cccc([N+](=O)[O-])c2)sc2nc3ccccc3n12	–	–	–	–	–	> 100 µM	–	–	–	> 100 µM	–	–	–	> 100 µM	–	> 100 µM	–	> 100 µM	–	> 100 µM
Cc1cc(O)cc2oc(=O)c3c(O)cc(O)cc3c12	–	86 µM	–	–	–	50.9 µM	–	76 µM	–	> 100 µM	–	> 100 µM	–	54.5 µM	–	48 µM	–	> 100 µM	–	> 100 µM
COC(=O)C1=C(O)c2cc(OC)c(OC)c(OC)c2[C@H](c2cc(OC)c(OC)c(OC)c2)C1C(=O)OC (some centres undefined)	–	> 100 µM	–	–	–	> 100 µM	–	> 100 µM	–	> 100 µM	–	> 100 µM	–	59.5 µM	–	> 100 µM	–	> 100 µM	–	> 100 µM
CCOC(=O)/C(O)=C(/c1n[nH]c(=O)c2ccccc12)[N+](=O)[O-]	–	> 100 µM	–	–	–	> 100 µM	–	> 100 µM	–	> 100 µM	–	> 100 µM	–	> 100 µM	–	> 100 µM	–	> 100 µM	–	> 100 µM
CC1(C)COC(C23C4C5C2C2C3C4C52I)=N1 (centres undefined)	–	> 100 µM	–	–	–	> 100 µM	–	> 100 µM	–	> 100 µM	–	> 100 µM	–	> 100 µM	–	> 100 µM	–	–	–	> 100 µM
[O-]c1c2c(nn1-c1ccccc1)c1ccccc1c[n+]2Cc1ccccc1	–	> 100 µM	–	–	–	> 100 µM	–	> 100 µM	–	> 100 µM	–	> 100 µM	–	7.33 µM	–	> 100 µM	–	> 100 µM	–	–
CC(=O)[CH-]C(=O)c1ccccc1.CC(=O)[CH-]C(=O)c1ccccc1.CC[O-].CC[O-].[Zr+4]	> 100 µM	> 100 µM	–	–	> 100 µM	> 100 µM	> 100 µM	> 100 µM	> 100 µM	> 100 µM	> 100 µM	> 100 µM	> 100 µM	> 100 µM	> 100 µM	> 100 µM	> 100 µM	> 100 µM	–	–
O=S(=O)(O)O.[NH-]C1CCCCC1[NH-].[Pt+2] (centres undefined)	80.4 µM	> 100 µM	–	–	> 100 µM	> 100 µM	> 100 µM	> 100 µM	> 100 µM	> 100 µM	> 100 µM	> 100 µM	> 100 µM	> 100 µM	> 100 µM	> 100 µM	> 100 µM	> 100 µM	32.3 µM	> 100 µM
O=S1c2ccccc2N=C(c2ccc3ccccc3c2)CC1C1=CC=CCC1 (centres undefined)	–	91.2 µM	–	–	–	40.4 µM	–	–	–	35.6 µM	–	–	–	30.4 µM	–	30.6 µM	–	32.2 µM	–	–
Cc1cc(NS(=O)(=O)c2ccc(N=Nc3cc(N=Nc4ccc(S(=O)(=O)Nc5cc(C)nc(C)n5)cc4)c4c(NC(=O)C(Cl)Cl)cccc4c3OC(=O)C(Cl)Cl)cc2)nc(C)n1 (tested in a mixture with another compound)	–	> 100 µM	–	–	–	78.8 µM	–	33.6 µM	–	70.2 µM	–	32.8 µM	–	38.7 µM	–	78.3 µM	–	31.6 µM	–	71.1 µM
Cc1c(Cl)ccc2c1NC(=O)C2(O)C(C(=O)c1ccccc1)c1ccccc1 (centres undefined)	–	> 100 µM	–	–	–	> 100 µM	–	> 100 µM	–	> 100 µM	–	> 100 µM	–	73.8 µM	–	42.2 µM	–	> 100 µM	–	70.1 µM
Cc1ccc(NC(=O)C(=O)C2C(=O)N(c3ccccc3)N=C2N)cc1C (centres undefined)	–	> 100 µM	–	–	–	> 100 µM	–	> 100 µM	–	> 100 µM	–	> 100 µM	–	–	–	> 100 µM	–	> 100 µM	–	> 100 µM
Cc1[nH]c2ccccc2c1C1Cc2ccccc2N1C(=O)/C=C/C=C/c1ccccc1 (centres undefined)	–	> 100 µM	–	–	–	> 100 µM	–	> 100 µM	–	> 100 µM	–	> 100 µM	–	> 100 µM	–	> 100 µM	–	> 100 µM	–	> 100 µM
Oc1ccc(-c2nnc3sc(-c4ccc(F)c(Oc5ccccc5)c4)nn23)cc1	30.9 µM	> 100 µM	36.8 µM	> 100 µM	21.2 µM	42.7 µM	34.6 µM	> 100 µM	43.6 µM	> 100 µM	17.5 µM	36.5 µM	7.47 µM	25.3 µM	29.3 µM	92.2 µM	45.7 µM	> 100 µM	–	–
